Laboratory results from patent US20070092551A1, “Therapeutic agent” (TAKARA BIO INC., priority 2003, published 2007).

Legend:
3T3-L1 cells = assay: Induction of adipocyte differentiation (amount of triglyceride biosynthesis); format: cell-based; details: Mus musculus, 3T3-L1, X=(S−N)/(P−N) of amount of triglyceride, P=insulin positive control, read-out: Action for Induction of Differentiation
Protocol: Induction of adipocyte differentiation was carried out by partially modifying the above-mentioned method of Rubin C. S. et al. In addition, as a test compound, a compound prepared in Examples mentioned above or a commercially available compound was used. 3T3-L1 cells (ATCC CCL-92.1) were suspended in a 10% fetal bovine serum (manufactured by Bio Whittaker)-containing Dulbecco's modified Eagle's medium (manufactured by Sigma, D6046) containing 200 μM ascorbic acid so as to have a density of 4×10^3 cells/mL, and the suspension was put in each well of a 12-well microtiter plate in an amount of 2 ml per well. The cells were cultured at 37° C. for 7 days in the presence of 5% carbon dioxide gas. On the seventh day, the medium was exchanged with a 10% fetal bovine serum (manufactured by Bio Whittaker)-containing Dulbecco's modified Eagle's medium containing 200 μM ascorbic acid and 0.25 μM dexamethasone, and a test compound dissolved in dimethyl sulfoxide in a concentration shown in each of Tables 16 to 19 was added to each well. Here, there were set a group with addition of 4 μL of an aqueous solution containing 5 mg/mL insulin (manufactured by TAKARA BIO INC.) as a positive control, and a group with addition of dimethyl sulfoxide as a negative control. After 45 hours, the medium was exchanged with a 10% fetal bovine serum-containing Dulbecco's modified Eagle's medium containing 200 μM ascorbic acid. A test compound, 2 μL of an aqueous solution containing 5 mg/mL insulin as a positive control, or dimethyl sulfoxide as a negative control was put to each well in the same concentration. The cells were cultured for additional 7 days. In addition, the medium was exchanged on after 2 days and after 5 days, and at that time, a test compound, 2 μL of an aqueous solution containing 5 mg/mL insulin as a positive control, or dimethyl sulfoxide as a negative control was put to each well in the same concentration.
The amount of triglyceride in the adipocytes was determined as an index of induction of differentiation into mature adipocytes, and also, as the evaluation of insulin-mimetic action.
After the termination of the culture, the medium was removed, and the cells were washed twice with a phosphate buffered saline. One milliliter of a solvent of hexane:isopropanol=3:2 was added to the cells. The mixture was allowed to stand at room temperature for 30 minutes, and thereafter the supernatant was collected. The procedures were repeated again, and 2 mL of the supernatant was concentrated to dryness. The precipitate was dissolved in 100 μL of isopropanol, and the amount of triglyceride contained in 10 μL of the solution was determined using a triglyceride E-test (manufactured by Wako Pure Chemical Industries, Ltd., code 432-40201). In addition, all the determinations were carried out twice. The action for induction of differentiation was calculated by the following calculation formula, and shown by four ranks of +++, ++, + and +/−. • S: Amount of triglyceride in the presence of a test compound; • N: Amount of triglyceride in the negative control; and • P: Amount of triglyceride in the positive control; X=(S−N)/(P−N) (Judgment of Action for Induction of Differentiation)

[1] = test system: mature adipocytes (3T3-L1 cells); assay: Enhancing action on glucose uptake (2-deoxyglucose) into mature adipocytes; format: cell-based; details: Mus musculus, 3T3-L1, X=(S−N)/(P−N) of 2-deoxyglucose uptake, P=insulin 1 μg/mL, read-out: Enhancing Action on Glucose Uptake
Protocol: The induction of differentation into nature adipocytes was carried out by partially modifying the above-mentioned method of Rubin C. S. et al. 3T3-L1 cells (ATCC CCL-92.1) were suspended in a 10% fetal bovine serum (manufactured by Bio Whittaker)-containing Dulbecco's modified Eagle's medium (manufactured by Sigma, D6046) containing 200 μM ascorbic acid so as to have a density of 4×10^3 cells/mL, and the suspension was put in each well of a collagen type I-coated 12-well plate (Iwaki Glass Co., Ltd., code 4815-010) in an amount of 2 mL per well. The cells were cultured at 37° C. for 7 days in the presence of 5% carbon dioxide gas. On the seventh day, the medium was exchanged with 2 mL of a 10% fetal bovine serum (manufactured by Bio Whittaker)-containing Dulbecco's modified Eagle's medium containing 200 μM ascorbic acid, 0.25 μM dexamethasone, 10 μg/mL insulin (manufactured by TAKARA BIO INC.) and 0.5 mM 3-isobutyl-1-methylxanthine (manufactured by nacalai tesque, 19624-86). After 45 hours, the medium was exchanged with 2 mL of a 10% fetal bovine serum-containing Dulbecco's modified Eagle's medium containing 200 μM ascorbic acid and 5 μg/mL insulin. The medium was exchanged on after 2 days and 5 days, and the cells were cultured for 7 days, to give mature adipocytes.
As the evaluation of the enhancing action on glucose uptake, and also as the evaluation of the insulin-mimetic action, the amount of 2-deoxyglucose uptake into mature adipocytes during the stimulation of the test compound in the adipocytes was determined. As a test compound, a compound prepared in the Examples mentioned above or a commercially available compound was used.
After the termination of the culture, the medium was removed, and the cells were washed twice with a 0.1% (w/v) bovine serum albumin (manufactured by Sigma, A8022)-containing Dulbecco's modified Eagle's medium. Thereafter, 1 mL of the same medium containing a test compound in a concentration shown in each of Tables 20 to 23 was put to each well. The cells were cultured overnight at 37° C. in the presence of 5% carbon dioxide gas. Here, a group without containing the test compound was set as a negative control. After the overnight culture, the cells were washed twice with a HEPES buffer (140 mM NaCl, 5 mM KCl, 2.5 mM MgSO4, 1 mM CaCl2, 20 mM HEPES-Na (pH 7.4)). The amount 0.9 mL of the buffer containing a test compound in the same concentration was added to each well. The cells were cultured at 37° C. for 75 minutes. During the culture, as a positive control, there was set a group with addition of insulin to the well without addition of a test compound at a point 45 minutes passed so as to have a final concentration of 1 μg/mL. Thereafter, 100 μL of a HEPES buffer containing 0.5 μCi/mL 2-deoxy-[1,2-^3H(N)]-glucose (manufactured by PerkinElmer Life Sciences Inc., NET549A) and 1 mM 2-deoxyglucose (manufactured by nacalai tesque, 10722-11) was added thereto. The cells were cultured at 37° C. for additional 10 minutes. After the termination of the culture, the supernatant was removed, and the cells were washed three times with a phosphate buffer cooled to 4° C. Thereafter, 0.5 mL of a 1% Nonidet P-40-containing phosphate buffer was added to lyse the cells, whereby 2-deoxy-[1,2-^3H(N)]-glucose subjected to uptake into the cells was eluted. The radioactivity was determined with a liquid scintillation counter LS6500 (manufactured by Beckmann) using 25 μL of the supernatant with Ultima Gold (manufactured by PerkinElmer Life Sciences Inc., 6013329) as a scintillation cocktail. The enhancing action on glucose uptake was calculated by the following calculation formula, and shown by four ranks of +++, ++, + and +/−. • S: Amount of 2-deoxyglucose uptake in the presence of a test compound; • N: Amount of 2-deoxyglucose uptake in the negative control; and • P: Amount of 2-deoxyglucose uptake in the positive control; X=(S−N)/(P−N) (Judgment of Enhancing Action for 2-Deoxyglucose Uptake)

SMILES | activation at 1.3 µM (3T3-L1 cells; 1.3 μM) [%] | activation at 4 µM (3T3-L1 cells) [%] | activation at 13 µM (3T3-L1 cells) [%] | activation at 3 µM [1] [%] | activation at 10 µM [1] [%] | activation at 30 µM [1] [%] | activation at 10 µM (3T3-L1 cells) [%] | activation at 30 µM (3T3-L1 cells; 30 μM) [%] | activation at 3 µM (3T3-L1 cells) [%] | activation at 1 µM (3T3-L1 cells) [%]
COc1ccc(C(C)=O)c(O)c1CC=C(C)C [Compound (C026), 2′-hydroxy-3′-prenyl-4′-methoxyacetophenone] | 30 to 60 | 60 to 100 | 60 to 100 | 15 to 30 | 30 to 60 | 30 to 60 |  |  |  | 
CCOc1ccc(C(C)=O)c(O)c1C/C=C(\C)CCC=C(C)C [Compound (C048), 2′-hydroxy-3′-geranyl-4′-ethoxyacetophenone] |  |  |  | 15 to 30 | 30 to 60 | > 100 | > 100 | > 100 |  | 
COc1ccc(C(=O)/C=C/c2ccc(O)cc2)c(OC(C)=O)c1C/C=C(\C)CCC=C(C)C [Compound (C064-2), 2′-acetoxy-3′-geranyl-4-hydroxy-4′-methoxychalcone] |  |  |  | 15 to 30 | 30 to 60 | > 100 | > 100 |  | > 100 | 
COc1ccc(C(C)=O)c(O)c1CCC(C)C [Compound (C041), 2′-hydroxy-3′-(3-methylbutyl)-4′-methoxyacetophenone] |  |  |  |  |  | > 100 | > 100 |  | 30 to 60 | 
COc1ccc(C(=O)/C=C/c2ccc(OC(C)=O)cc2)c(OC(C)=O)c1CC=C(C)C [Compound (C032), 4,2′-diacetoxy-3′-prenyl-4′-methoxychalcone] |  |  |  | > 100 | > 100 | > 100 | > 100 |  | > 100 | 60 to 100
COc1cc(O)c(C(=O)/C=C/c2ccc(O)cc2)cc1CC=C(C)C [Bavachalcone, 4,2′-Dihydroxy-4′-methoxy-5′-prenylchalcone] |  | 15 to 30 | 30 to 60 |  | 30 to 60 | > 100 |  |  |  | 
COc1ccc(C(=O)/C=C/c2ccc(O)cc2)c(O)c1C/C=C(\C)C/C=C/C(C)(C)OO [TB8, 1-[2-hydroxy-3-(7-hydroperoxy-3,7-dimethyl-2,5-octadienyl)-4-methoxyphenyl]-3-(4-hydroxyphenyl)-2-propen-1-one] |  |  |  | 15 to 30 | 60 to 100 | 60 to 100 | > 100 |  | 30 to 60 | 
COc1ccc(C(=O)/C=C/c2cccc([N+](=O)[O-])c2)c(O)c1CC=C(C)C [Compound (C076), 3-nitro-2′-hydroxy-3′-prenyl-4′-methoxychalcone] |  |  |  | 15 to 30 | 30 to 60 | > 100 | > 100 |  | > 100 | 60 to 100
COc1ccc(C(=O)/C=C/c2ccc(Cl)cc2)c(OC(C)=O)c1CC=C(C)C [Compound (C079), 4-chloro-2′-acetoxy-3′-prenyl-4′-methoxychalcone] |  |  |  | > 100 | 60 to 100 | > 100 | > 100 |  | 60 to 100 | 
CC(=O)c1ccc(OC2CCCCO2)c(CC=C(C)C)c1O (centres unmarked) [Compound (C044), 2′-hydroxy-3′-prenyl-4′-tetrahydropyranyloxyacetophenone] |  |  |  |  | 30 to 60 | > 100 | 60 to 100 |  | 30 to 60 | 
COc1ccc(C(C)=O)c(O)c1C/C=C(\C)CC/C=C(\C)CCC=C(C)C [Compound (C052), 2′-hydroxy-3′-farnesyl-4′-methoxyacetophenone] |  |  |  | 15 to 30 | 30 to 60 | 30 to 60 | 30 to 60 |  |  | 
COc1cc(O)c(C(C)=O)cc1CC=C(C)C [Compound (C027), 2′-hydroxy-4′-methoxy-5′-prenylacetophenone] |  | 15 to 30 | 30 to 60 |  | 15 to 30 | 30 to 60 |  |  |  | 
COc1ccc(/C=C/C(=O)c2c(OC)cc(OC)c(CC=C(C)C)c2O)cc1 [Compound (C046), 4,4′,6′-trimethoxy-2′-hydroxy-3′-prenylchalcone] |  |  |  | 15 to 30 | > 100 | > 100 | > 100 |  | 60 to 100 | 
